Patent US4544740A, “Process for the preparation of 5-(2-bromovinyl)-uridine” (priority 1981, dated 1985)
Values after ≈ are worked out from the molar mass of the structure shown. Values joined by “and” are separate entries in the source; they are usually repeats but may differ in a detail not shown here. Identical values can stand only once. “Also recorded” adds a separate entry of the source. Like-named read-outs stand apart in the source and are kept apart here.

Key:
Water solubility = format: physicochemical; settings: i.v. trial limited
[1] = system: type 1 Herpes simplex virus; assay: Inhibitory effect of nucleoside analogues on multiplication of type 1 Herpes simplex in HeLa cell culture (virus titer, TCID50); format: cell-based, Herpes simplex virus type 1; settings: for log TCID50, average: average of individual experiments; for Δ log TCID50, average / Δ log TCID50: difference from control; for antiviral (anti-herpes) effect in words: in vitro, tissue culture
From the text: (§1) A method was developed for the testing of the antiviral activity of various drugs in solution which is suitable for the exact, sensitive and objective in vitro assay of drug activity exerted on the cells and tissues of both warm-blooded animals and men [Toxicology 16, 59 (1980)]. The method is also suitable for calculating from the test data the highest concentration of the test drug in the tissue culture medium which is not impairing the tissue yet (CTo).
The difference in the logarithm of virus titers may be considered the objective indicator of the rate of inhibition of virus multiplication.

[2] = Cytotoxicity of nucleoside analogues in HeLa cell cultures; format: cell-based; settings: human, hela cells
From the text: (§2) Cytotoxicity of nucleoside analogues at concentra-
(§3) tions of CTo and CT50 in various cell cultures in […]

[3] = Cytotoxicity of nucleoside analogues in Vero cell cultures; format: cell-based; settings: monkey, vero cells
From the text: as §2, §3

tissue culture = assay: Comparative toxicity in tissue culture
From the text: as §1

[4] = Cytotoxicity of nucleoside analogues in RK-13 cell cultures; format: cell-based; settings: rabbit, rk-13 cells
From the text: as §2, §3

Herpes simplex type 1 = assay: Effect of nucleoside analogues on virus multiplication in cell cultures at concentrations of CTo: Herpes simplex type 1 in HeLa cell culture; format: cell-based, Herpes simplex virus type 1
Protocol: The testing of antiviral activity was carried out according to the following considerations:
According to the literature the major part of antiviral nucleoside analogues is presumed to exert its "antiviral potency" by interfering with the functioning of the host cell which as a result fails to promote intracellular virus multiplication (it is a well known fact that virus multiplication requires a well functioning host cell).
Effect of nucleoside analogues on virus multiplica-
tion in cell cultures at concentrations of CTo
^1 = type 1 in HeLa cell culture

[5] = Cytotoxicity of nucleoside analogues in BHK-21 cell cultures; format: cell-based; settings: hamster, bhk-21 cells
From the text: as §2, §3

Herpes simplex virus = settings: literature; cited from earlier work
[6] = individual experiments, HeLa, concentration of CTo
[7] = read-out: CT50 (the source's name) (converted)

Protocol for mice: Solvent: 20 percent aqueous dimethylsulfoxide
Acute toxicity after a single dose
/measured after 24 hours/
Dose Number of dead/treated animals

## O=c1[nH]c(=O)n([C@@H]2O[C@H](CO)[C@@H](O)[C@H]2O)cc1/C=C/Br [A, (E)-5-(2-Bromovinyl)-uridine]
Water solubility
  water solubility: poor water solubility
[1]; HeLa, concentration of CTo
  log TCID50, average: 2.66
  Δ log TCID50, average: 3.16
[1]; listed as (E)-5-(2-Bromovinyl)-uridine
  antiviral (anti-herpes) effect in words: very active in inhibiting the multiplication of type 1 Herpes simplex virus
[1]; listed as (E)-5-(2-bromovinyl)-uridine
  antiviral (anti-herpes) effect in words: marked antiviral effect in vitro; also recorded: significantly reduced
[1]; listed as ribonucleoside of (E)-5-(2-bromovinyl)-uracil base
  antiviral (anti-herpes) effect in words: similarly high anti-herpes potency
[1]; [6]
  log TCID50: 2.77 and 2.5 and 3.0 and 2.33
  Δ log TCID50: 3.23 and 3.33 and 3.25 and 3.0 and 3.16 and 3.17
[2]
  CC50: 398 µg/mL (≈ 1140 µM)
  MNTC: 100 µg/mL
[3]
  CC50: 398 µg/mL (≈ 1140 µM)
  MNTC: 100 µg/mL
Tissue culture
  effect on cells and tissues used for culturing: without impairing the cells and tissues used for culturing
[4]
  CC50: 501 µg/mL (≈ 1440 µM)
  MNTC: 39.8 µg/mL
mice; mouse, in vivo, 1000 mg/kg
  Number of dead/treated animals: 0/5
mice; mouse, in vivo, 1500 mg/kg
  Number of dead/treated animals: 0/5
mice; mouse, in vivo, ip, 500 mg/kg
  Number of dead/treated animals: 0/5
mice; mouse, in vivo, ip, 750 mg/kg
  Number of dead/treated animals: 0/5
mice; mouse, in vivo, ip, 1000 mg/kg
  Number of dead/treated animals: 4/5
mice; mouse, in vivo, iv, 300 mg/kg
  Number of dead/treated animals: 0/5
Herpes simplex type 1
  Effect on virus multiplication, Herpes simpl.: ++++
[5]
  CC50: 501 µg/mL (≈ 1440 µM)
  MNTC: 126 µg/mL

## O=c1[nH]c(=O)n([C@H]2C[C@H](O)[C@@H](CO)O2)cc1/C=C/Br [B, (E)-5-(2-bromovinyl)-2'-deoxy-uridine, reference compound]
[1]; HeLa, concentration of CTo
  log TCID50, average: 2.26
  Δ log TCID50, average: 3.53
[1]
  antiviral (anti-herpes) effect in words: marked antiviral effect in vitro
[1]; [6]
  Δ log TCID50: 3.33 and 3.84 and 3.78 and 3.17
[2]; HeLa, highest concentration not impairing the tissue, read-out: CTo (converted)
  MNTC: 39.8 µg/mL
[2]; [7]
  CC50: 251 µg/mL (≈ 754 µM)
[3]; Vero, highest concentration not impairing the tissue, read-out: CTo (converted)
  MNTC: 39.8 µg/mL
[3]; [7]
  CC50: 316 µg/mL (≈ 949 µM)
Tissue culture; at concentrations as low as CTo
  effect on cells and tissues used for culturing: without impairing the cells and tissues used for culturing
[4]; RK-13, highest concentration not impairing the tissue, read-out: CTo (converted)
  MNTC: 20 µg/mL
[4]; [7]
  CC50: 794 µg/mL (≈ 2380 µM)
Herpes simplex virus
  antiviral / anti-herpes activity in words: marked anti-herpes potency
mice; i.p., 500 mg/kg single dose, 24 hours
  Number of dead/treated animals: 0/5
mice; i.p., 750 mg/kg single dose, 24 hours
  Number of dead/treated animals: 2/5
mice; i.p., 1000 mg/kg single dose (aqueous suspension), 24 hours
  Number of dead/treated animals: 5/5
mice; i.v., 300 mg/kg single dose, 24 hours
  Number of dead/treated animals: 1/5
mice; per os, 1000 mg/kg single dose (aqueous suspension), 24 hours
  Number of dead/treated animals: 0/5
mice; per os, 1500 mg/kg single dose (aqueous suspension), 24 hours
  Number of dead/treated animals: 0/5
Herpes simplex type 1
  Effect on virus multiplication, Herpes simpl.: ++++
[5]; BHK-21, highest concentration not impairing the tissue, read-out: CTo (converted)
  MNTC: 316 µg/mL
[5]; [7]
  CC50: 794 µg/mL (≈ 2380 µM)

## O=c1[nH]c(=O)n([C@H]2C[C@H](O)[C@@H](CO)O2)cc1I [C, 5iodo-2deoxy-uridine]
[2]
  CC50: 20 µg/mL (≈ 56.3 µM)
  MNTC: 0.0398 µg/mL
[3]
  CC50: 39.8 µg/mL (≈ 112 µM)
  MNTC: 31.6 µg/mL
[4]
  CC50: 79.4 µg/mL (≈ 224 µM)
  MNTC: 5.01 µg/mL
[5]
  CC50: 6.31 µg/mL (≈ 17.8 µM)
  MNTC: 0.1 µg/mL

## Nc1nc(=O)n([C@H]2C[C@H](O)[C@@H](CO)O2)cc1I [D, 5iodo-2deoxy-cytidine]
[2]
  CC50: 7.94 µg/mL (≈ 22.5 µM)
  MNTC: 0.01 µg/mL
